The values that follow come from paper PMC6748952, “Identification, Functional Characterization, and Pharmacological Analysis of Two Sulfakinin Receptors in the Medically-Important Insect Rhodnius prolixus” (Scientific Reports, 2019).

Entries after “also recorded” stand apart in the source; their conditions may differ. Where no end group is shown, it is not given here.

Experiment [1] has as its system Rhopr-SKR-1. The experiment is described as follows: Second messenger pathway assay (PLC inhibitor U73122 or EGTA), Rhopr-SKR-1 in HEK293/CNG cells. The experiment is classed as cell-based, Rhodnius prolixus. The conditions noted are these: for luminescence response of control agents: cells expressing Rhopr-SKR-1, confirms functional CNG channels (Fig. S4); for EC50: 3 replicates, read-out: EC50, luminescence response; for luminescence response: with 10 μM U73122 (10 minutes incubation). The method, then: (§1) To test whether cAMP and/or Ca^2+ are the second messengers for Rhopr-SKR-1 and Rhopr-SKR-2, HEK293/CNG cells were transfected with each receptor, as previously mentioned, then split into cells that were suspended in calcium-free DMEM with the extracellular calcium chelator EGTA (10 μM) or cells treated with the PLC inhibitor U73122 (10 μM) (Sigma Aldrich, Oakville, ON, Canada). […] HEK293/CNG cells with receptors that work via the Ca^2+ pathway would be unable to evoke luminescence in the presence of U73122. The modified CNG channel in HEK293/CNG causes extracellular Ca^2+ to flow into the cell upon an increase in cytoplasmic cAMP levels. Receptors that solely work through the cAMP pathway would be unable to produce a response in calcium-free media with EGTA. Moreover, receptors that work via both Ca^2+ and cAMP would elicit a response in the presence of either U73122 or EGTA in calcium-free media.
(§2) HEK293/CNG cells were used via the same protocol as previously stated. Luminescence was measured in 5-second intervals for a total of 30 seconds. In the first set of experiments, the transfected cells were incubated in 10 μM of U73122 for 10 minutes prior to measuring luminescence in response to the addition of sulfated Rhopr-SK-1 or Rhopr-SK-2. To confirm the viability of the utilized cells, media in 1.5% Triton X-100 served as a positive control. In the second set of experiments, cells were suspended in calcium-free DMEM (Thermo Fisher Scientific, Waltham, MA, USA) with 10 μM of the extracellular calcium chelator EGTA. Here, luminescence was measured in response to sulfated Rhopr-SK-1 or Rhopr-SK-2 in calcium-free DMEM in the presence of EGTA. A batch of cells that was also pre-incubated in calcium-free DMEM with EGTA were then washed, incubated in regular DMEM, and then tested in response to sulfated Rhopr-SK-1 and […]. Forskolin, which is a stimulator of adenylate cyclase, and the cAMP analog dibutyryl cAMP (dbcAMP) were utilized as controls to confirm the expression of functional CNG channels in the HEK293/CNG cells. ATP served as a positive control. GraphPad Prism version 8.00 (https://www.graphpad.com) was used to analyze the bioluminescence results.

Experiment [2] has as its system Rhopr-SKR-2. The experiment can be described thus: Second messenger pathway assay (PLC inhibitor U73122 or EGTA), Rhopr-SKR-2 in HEK293/CNG cells. The conditions noted are these: for EC50: 3 replicates, read-out: EC50, luminescence response; for luminescence response: with 10 μM U73122 (10 minutes incubation). The experiment is classed as cell-based, Rhodnius prolixus. The method, then:
as §1, §2

The subject of experiment [3] is Rhopr-SKR-1. The experiment can be described thus: Functional receptor assay (aequorin bioluminescence), Rhopr-SKR-1 transiently expressed in HEK293/CNG cells. It counts as cell-based, Rhodnius prolixus. Conditions: for luminescence response / activation (in words) / EC50: HEK293/CNG, first 5-second interval, 3 replicates; for EC50: aequorin luminescence, coelenterazine h 5 μM, read-out: EC50, luminescence response. As to the method:
(§3) An aequorin luminescence assay was utilized in order to measure Ca^2+ signaling in HEK293/CNG cells stably expressing a modified cyclic nucleotide-gated (CNG) channel. The cells were grown in Dulbecco’s Modified Eagle Medium Nutrient Mixture F12-Ham (DMEM/F-12) (Thermo Fisher Scientific, Waltham, MA, USA), with 1% penicillin/streptomycin, 10% fetal bovine serum (FBS), and 100 μg/mL G418 (Geneticin). The HEK293/CNG cells were consistently grown in vented T75 flasks and inclubated at 37 °C in 5% CO2. After reaching approximately 95% confluency, the mammalian cells were transiently co-transfected with the pIRES2-ZsGreen1 expression vector (containing Rhopr-SKR-1 or Rhopr-SKR-2) and the cytoplasmic luminescent reporter aequorin via X-tremeGENE^TM HP DNA Transfection Reagent (Roche Applied Science, Penzberg, Germany). Transfections were performed at a 2:1 ratio for the transfection reagent to the expression vectors. Cells transiently transfected with empty pIRES2-ZsGreen1 expression vectors served as a negative control. The cells were then incubated at 37 °C in 5% CO2 for 72 hours prior to performing the bioluminescence assay.
(§4) The bioluminescence assay was performed as previously described. At 72 hours post-transfection, the HEK293/CNG cells were harvested from the T75 flasks using a PBS with ethylenediaminetetraacetic acid (EDTA) solution then suspended in a bovine serum albumin (BSA) media (DMEM/F-12 with 1% penicillin/streptomycin and 1% BSA). Prior to the functional assay, the cells were incubated in coelenterazine h (Promega, Madison, WI, USA) to a 5 μM final concentration, and then incubated for 4 hours whilst stirring in the dark. The cells were then diluted 8-fold via BSA media. Rhopr-SK-1 and Rhopr-SK-2 (as well as nonsulfated Rhopr-SK-1) were prepared in BSA media then plated in duplicates on 96-well plates, with 50 μL of the cells then automatically injected into each of these wells via a Perkin Elmer Wallac 1420 Victor2 plate reader (Perkin Elmer, San Diego, CA, USA). The reader was used to measure luminescence response in consecutive five-second intervals (15 seconds in total). An extended Rhopr-FMRFamide (GNDNFMRFamide), tachykinin (Rhopr-TK-2), and Rhopr-Kinin-2 were used as controls to test for specificity. ATP was used as a positive control. HEK293/CNG cells transfected with empty pIRES2-ZsGreen1 vectors served as negative controls.

In experiment [4] the test system is Rhopr-SKR-2. The experiment is described as follows: Functional receptor assay (aequorin bioluminescence), Rhopr-SKR-2 transiently expressed in HEK293/CNG cells. The experiment is classed as cell-based, Rhodnius prolixus. The conditions noted are these: for luminescence response / activation (in words) / EC50: HEK293/CNG, first 5-second interval, 3 replicates; for EC50: aequorin luminescence, coelenterazine h 5 μM, read-out: EC50, luminescence response. The method, then:
as §3, §4

The subject of experiment [5] is PLC pathway. The conditions noted are these: HEK293/CNG cell line; cited from earlier work. As to the method:
To test whether cAMP and/or Ca^2+ are the second messengers for Rhopr-SKR-1 and Rhopr-SKR-2, HEK293/CNG cells were transfected with each receptor, as previously mentioned, then split into cells that were suspended in calcium-free DMEM with the extracellular calcium chelator EGTA (10 μM) or cells treated with the PLC inhibitor U73122 (10 μM) (Sigma Aldrich, Oakville, ON, Canada). […] HEK293/CNG cells with receptors that work via the Ca^2+ pathway would be unable to evoke luminescence in the pre ...

Experiment [6] has as its system HEK293/CNG cells. The experiment is described as follows: Negative control: HEK293/CNG cells transfected with empty pIRES2-ZsGreen1 plasmids. It counts as cell-based, human. The conditions noted are these: empty pIRES2-ZsGreen1 (not shown). As to the method:
as §3, with “Cells transiently transfected with empty pIRES2-ZsGreen1 expression vectors served as a negative control. The cells were then incubated at 37 °C in 5% CO2 for 72 hours prior to performing the bioluminescence assay.” left out
The bioluminescence assay was performed as previously described. […] Rhopr-SK-1 and Rhopr-SK-2 (as well as nonsulfated Rhopr-SK-1) were prepared in BSA media then plated in duplicates on 96-well plates, with 50 μL of the cells then automatically injected into each of these wells via a Perkin Elmer Wallac 1420 Victor2 plate reader (Perkin Elmer, San Diego, CA, USA). The reader was used to measure luminescence response in consecutive five-second intervals (15 seconds in total). […]

For experiment [7], the system named is R. prolixus. The conditions noted are these: peptide injection; cited from earlier work. The text has this:
Silencing of SKs via RNAi has been linked to stimulation in the intake of food in G. bimaculatus[28] and T. castaneum. Additionally, RNAi-induced silencing of each of the transcripts for the two SKRs in T. castaneum led an increase of food intake by approximately 20% for SKR1[25] and 50% for SKR2[29]. […] In the present study, the transcript coding for Rhopr-SK-1 and Rhopr-SK-2 as well as the ...

The mark [8] stands for this setting: Rhopr-SKR-1, absence of EGTA, media containing calcium.
The mark [9] stands for this setting: Rhopr-SKR-1, absence of U73122, media containing calcium.
Setting [10] is: Rhopr-SKR-1, presence of EGTA (10 μM), calcium-free DMEM.
Setting [11] is: absence of EGTA, media containing calcium.
[12] abbreviates: absence of U73122, media containing calcium.
[13] abbreviates: presence of EGTA (10 μM), calcium-free DMEM.

For `Nc1ncnc2c1ncn2[C@@H]1O[C@H](COP(=O)(O)OP(=O)(O)OP(=O)(O)O)[C@@H](O)[C@H]1O` [ATP, reference compound], the “bioluminescent response of ATP, positive control” value in experiment [1] (Rhopr-SKR-1, all conditions (not shown)) is listed as “elicited the expected positive bioluminescent response”; in experiment [2] (all conditions (not shown)), “elicited the expected positive bioluminescent response”.
As for `CCCC(=O)Nc1ncnc2c1ncn2[C@@H]1O[C@@H]2COP(=O)(O)O[C@H]2[C@H]1OC(=O)CCC` [dibutyryl-cAMP, reference compound], in experiment [1], the “luminescence response of control agents” value is on record as “elicited luminescence responses”.
“APSTMGFQGVR-NH2 [Rhopr-TK-2, R. prolixus tachykinin, control for specificity, reference compound]”: the “luminescence response / activation (in words)” value in experiment [3] and in experiment [4] was “little to no response” throughout.
Turning to `O=C(O)CN(CCOCCOCCN(CC(=O)O)CC(=O)O)CC(=O)O` [EGTA, ethylene glycol-bis(β-aminoethyl ether)-N,N,N′,N′-tetraacetic acid, reference compound], the “effect of EGTA on luminescence induced by Rhopr-SK-1 and Rhopr-SK-2” value in experiment [1] (Rhopr-SKR-1, calcium-free media containing EGTA (10 μM)) is “does not abolish the luminescence induced by Rhopr-SK-1 and Rhopr-SK-2”; in experiment [2] (calcium-free media containing EGTA (10 μM)), “does not abolish the luminescence induced by Rhopr-SK-1 and Rhopr-SK-2”.
In the case of `COc1ccc2c(c1)CC[C@@H]1[C@@H]2CC[C@]2(C)[C@@H](NCCCCCCN3C(=O)C=CC3=O)CC[C@@H]12` [U73122, reference compound], in experiment [5], the “inhibition of PLC pathway” value was “successfully inhibit the PLC pathway”. Also, the “effect of U73122 on luminescence response to Rhopr-SK-1 and Rhopr-SK-2” value was “abolished the luminescence response to Rhopr-SK-1 and Rhopr-SK-2” in experiment [1] (Rhopr-SKR-1, 10 μM); “abolished the luminescence response to Rhopr-SK-1 and Rhopr-SK-2” in experiment [2] (10 μM).
Take “AKFSSWG-NH2 [Rhopr-Kinin-2, R. prolixus kinin, control for specificity, reference compound]”: the “luminescence response / activation (in words)” value in experiment [3] and in experiment [4] was “little to no response” in each case.
Consider “GNDNFMRF-NH2 [extended Rhopr-FMRFamide, control for specificity, reference compound]”, for which the “luminescence response / activation (in words)” value in experiment [3] and in experiment [4] was “little to no response” in each case.
As for `C=C[C@@]1(C)CC(=O)[C@]2(O)[C@@]3(C)[C@@H](O)CCC(C)(C)[C@@H]3[C@H](O)[C@H](OC(C)=O)[C@@]2(C)O1` [forskolin, reference compound], the “luminescence response of control agents” value in experiment [1] was “elicited luminescence responses”.
Consider “GGSDEKFDDY(SO3H)GYMRFamide [Rhopr-SK-2, native R. prolixus sulfakinin 2, custom synthesized]”, for which the “luminescence in empty-vector cells” value in experiment [6] is “no luminescence”. The EC50 in experiment [1] (setting [8]) came to 6.86 nM; in experiment [1] (setting [9]), 13.3 nM; in experiment [1] (setting [10]) it was 30.2 nM; in experiment [3], 8.69 nM; in experiment [2] (setting [11]) it was 0.134 nM; in experiment [2] (setting [12]), 0.121 nM. Also, the results for the EC50 in experiment [2] (setting [13]) and in experiment [4] were 0.314 nM and 0.101 nM, respectively. For the same compound, the luminescence response result in experiment [1] (Rhopr-SKR-1) and in experiment [2] was “unable to elicit a response” in each case. Further, the “luminescence response / activation (in words)” value in experiment [3] is “activated by sulfated Rhopr-SK-1 and sulfated Rhopr-SK-2 in a dose-dependent manner; also recorded: partial, though potent ligand”; in experiment [4], “activated by sulfated Rhopr-SK-1 and sulfated Rhopr-SK-2 in a dose-dependent manner; also recorded: partial, though potent ligand”. In addition, the “luminescence of Rhopr-SK-2 vs Rhopr-SK-1” value in experiment [4] (1 × 10^−6 M, one way ANOVA, Tukey, ***P < 0.001, 3 replicates) is reported as “lower”.
Take “pQFNEY(SO3H)GHMRFamide [Rhopr-SK-1, native R. prolixus sulfakinin 1, custom synthesized]”: the “luminescence in empty-vector cells” value in experiment [6] is “no luminescence”. Besides, in experiment [7], the “size of blood meal” value is “took smaller blood meals”. The EC50 in experiment [1] (setting [8]) was determined as 0.294 nM; in experiment [1] (setting [9]), 0.317 nM; in experiment [1] (setting [10]) it was 0.44 nM; in experiment [3], 0.532 nM; in experiment [2] (setting [11]) it was 0.214 nM; in experiment [2] (setting [12]), 0.103 nM. Moreover, the EC50 in experiment [2] (setting [13]) was determined as 0.344 nM; in experiment [4], 0.144 nM. Moreover, the luminescence response entry in experiment [1] (Rhopr-SKR-1) and in experiment [2] was “unable to elicit a response” in each case. In addition, the “potency of Rhopr-SK-1 relative to Rhopr-SK-2” value is “one order of magnitude more potent than Rhopr-SK-2” in experiment [3] and “similar” in experiment [4]. Besides, the “luminescence response / activation (in words)” value in experiment [3] is “activated by sulfated Rhopr-SK-1 and sulfated Rhopr-SK-2 in a dose-dependent manner; also recorded: full, and potent ligand”; in experiment [4], “activated by sulfated Rhopr-SK-1 and sulfated Rhopr-SK-2 in a dose-dependent manner; also recorded: full, and potent ligand”.

Usually EC50 stands for the midpoint of the concentration-response curve.
